According to patent US9303069B2, “Peptides for treating cancer” (University of Mississippi Medical Center, priority 2014, dated 2016):
pIC50: −log10 of the molar value. Ends that are not written are not given here.

Legend:
Type in all cases: cell-based, human
[1] = tested on: MDA-MB-231 and MDA-MB-468 cells; test: Invasion assay, matrigel coated Boyden chambers, TNBC cells; details: peptide added every 3rd day
Excerpt: To study invasion in vitro, matrigel coated Boyden chambers were layered with MDA-MB-231 or MDA-MB-468 cells expressing shcontrol of shIRIS expressing cells, also parental cells were layered and grown in the presence of scrambled or IRIS peptide (added every 3rd day). To migrate to the lower side of the chamber or the bottom well, cells must first digest the matrigel. Four days later, a significant number of control treated cells invaded the matrigel and migrated to the lower side of the chambers (FIG. 95, 1st column and FIG. 96) and the bottom well (FIG. 97 and FIG. 98, 1st column) in both cell lines. […] Quantitatively, BRCA1-IRIS silencing or inactivation reduced the invasive/migratory ability of these TNBC cells by ˜100 fold (FIG. 96 and FIG. 97).
Cell Invasion assay. Growth reduced BD Matrigel™ invasion chamber (24 well plate, 8.0 μm, BD BioCoat™) was used to study the invasion ability of control shRNA and BRCA1-IRIS shRNA expressing MDAMB231 cells. Cells (5×10^3) in complete medium (500 μl) were seeded on the upper compartment, and the lower compartment was filled with 750 μl of complete growth medium. […] Cells invaded into the lower side of the membrane as well as those migrate to the bottom well were stained with Crystal Violet, visualized under microscope, photographed and counted. […]

BRCA1-IRIS = BRCA1-IRIS expression in ovarian cells (Western analysis); details: all ovarian cell lines; 10 μM of IRIS peptide for 24 hours
Excerpt: At these low concentrations of cisplatin BRCA1-IRIS expression was induced in HOSE cells and remained high in HOSE/IRIS cells (FIG. 17). […] Cell lines expressing the lowest levels of BRCA1-IRIS (i.e.

[2] = tested on: HME/IRIS, MDA-MB-231 and MDA-MB-468 cells; test: Acini formation in matrigel-coated wells, breast cell lines; details: day 10; peptide added every third day
Excerpt: Next, it was considered whether BRCA1-IRIS depletion or inactivation could impact the aggressive behavior in breast cancer cell lines. BRCA1-IRIS silenced HME, HME/IRIS, MDA-MB-231 and MDA-MB-468 cells were layered on matrigel-coated wells. Moreover, parental cell lines were layered on the matrigel and grown in the presence of scrambled or IRIS peptide (added every third day). […] On day 10, HME acini became slightly bigger but remained round (FIG. 89, 1st column and FIG. 90). Acini formed by HME/IRIS, MDA-MB-231 and MDA-MB-468 were large/non-round on day 10 (FIG. 89, 1st column and FIGS. 90 and 91). BRCA1-IRIS depletion (FIG. 89, 2nd column and FIG. 91) or inactivation (FIG. 89, 3rd column and Suppl. FIG. 91) reverted this phenotype back to near normal “small/round” acini. Quantitatively, BRCA1-IRIS overexpression led to >3-fold increase in HME cells aggressiveness, and its depletion or inactivation reduced that phenotype in tumor cells by >3 fold (FIG. 90 and FIG. 91).

[3] = tested on: BRCA1-IRIS, TrkB, ErbB2, AKT, p-AKT, p-FOXO, Cyclin D1, Bcl-2 and survivin; test: Expression of growth and survival proteins in HOSE and HOSE/IRIS cells (Western); details: IRIS peptide 5 μM, cisplatin 10 μM, combination 2.5 μM IRIS peptide + 5 μM cisplatin
Excerpt: HOSE cells overexpressing IRIS show a higher degree of resistance to cisplatin than HOSE cells (compare blue to black line in FIG. 30).

HOSE/IRIS cells = details: 48 h
Experimental: (§1) Thus, a peptide (hereafter IRIS peptide) composed of a cell/nucleus penetrating signal (FIG. 26) fused to BRCA1-IRIS intron 11 (FIG. 26) was synthesized. Equal numbers of HOSE, HOSE/IRIS, SKOV3, OVCAR3, OVCAR420 and OV-90 cells were grown in the presence of increasing concentrations of IRIS peptide for 48 hours.
(§2) Cell viability measurement. Cell viability under different experimental conditions was determined using the MTS assay […]. Briefly, SKOV3, OVACAR3, HOSE and HOSE/IRIS cells (2.5×10^4 cells per well) were seeded in 96 well plates and incubated overnight at 37° C. in 10% humidified CO2 atmosphere in varying concentrations of IRIS peptide, or inhibitors of ErbB2 (CP-724714), EGFR (Erlotinib), TrkB (K252a), JNK (SP600125), p38 (SB203580), ERK (PD98059) and PI3′K/AKT (LY294002) inhibitors for 24 hours at 37° C. Cell Titer 96® Aqueous (Promega, Madison, Wis., USA) was used to measure viability following manufactures instructions. Cell viability (%) was expressed as a ratio to control cells×100. Growth inhibition was also determined by manually counting cells in five different microscopic fields. Change in cell numbers (fold) was expressed as a ratio to control cells×100. All experiments were done in at least triplicates, three different times. * is p≦0.05, ** is p≦0.001 and *** is p≦0.0001.

OVCAR420 cells = details: 48 h
Experimental: as §1, §2

SKOV3 cells = test: Hanging drops (anchorage independent growth), SKOV3; details: IRIS peptide 5 μM versus scrambled peptide
Experimental: Hanging drops: In this technique, the anchorage independent growth ability of cells was measured.
Hanging Drop Method. Single-cell suspensions were made from monolayer cultures in growth medium. Cell density used was 250 cells per drop (20 μl) of medium dispensed onto a 6 cm dish (Corning Life Sciences, Union City, Calif.). The dish was then inverted, the drops were held in place by surface tension, and cells accumulated at the free liquid-air interface. The dishes were placed on a tray with water and incubated under standard conditions. Hanging cell-drops formed was analyzed using microscope. All experiments were done in triplicate.

AKT, ERK, MDM2 and Skp2 = test: Signalling proteins in SKOV3 and OVCAR3 cells (Western)
Excerpt: Finally, to further dissect the IRIS-induced cisplatin resistance pathway, PI3′K/AKT (using […]) and ERK (using PD98059) were inactivated and compared to IRIS peptide in two aggressive ovarian cancer cell lines. […] Phosphorylation of cytoplasmic or nuclear FOXO3a by p-AKT and/or p-ERK promotes MDM2 binding and priming ubiquitylation, which is then followed by Skp2 branching ubiquitylation and FOXO3a degradation (Huang and Tindall, 2011). FOXO was less phosphorylated in LY, PD as well as IRIS-silenced/inactivated SKOV3 or OVCAR3 cells (FIG. 34). […] Consistently, in BRCA1-IRIS silenced/inactivated cells accumulation of unphosphorylated/stabilized FOXO3a was detected. In contrast, FOXO3a was still decreased to different degrees in LY or PD treated cells (FIG. 34).

For “RRIRPRPPRLPRPRPRPLPFPRPGIGTRFLCLPQSIYRSELNVYAFGEHILQISKYS [IRIS peptide]”, the “reduction of invasive/migratory ability” value [1] was about 100 fold, the BRCA1-IRIS expression (BRCA1-IRIS) was “significant reduction in BRCA1-IRIS expression” and the “reduction of aggressive (large/non-round) acini phenotype in tumor cells” value [2] was over 3 fold. The “expression of BRCA1-IRIS, TrkB, ErbB2, AKT, p-AKT, p-FOXO, Cyclin D1, Bcl-2 and survivin” value [3] was “significant decrease”, the pIC50 (HOSE/IRIS cells) was about 5.00 and the pIC50 (OVCAR420 cells) was about 6.00. The “ability to form hanging drops” value (SKOV3 cells) was “complete loss of ability” and the “AKT and ERK expression and activation” value (AKT, ERK, MDM2 and Skp2) was “decreased expression and inactivated AKT and ERK”.
